Earlier results in US20160143876A1, “MAINTENANCE THERAPY REGIME/REGIMEN FOR THE TREATMENT OF ACNE” (GALDERMA RESEARCH & DEVELOPMENT, priority 2008, published 2016).

Tests used:
acne = settings: in vivo
[1] = applied as monotherapy

Structure (SMILES) | Patients who relapse after treatment (acne) | Tolerability profile compared to other topical retinoids [1]
CC1=C(/C=C/C(C)=C/C=C/C(C)=C\C(=O)O)C(C)(C)CCC1 [isotretinoin] | up to 21% | 
COc1ccc(-c2ccc3cc(C(=O)O)ccc3c2)cc1C12CC3CC(CC(C3)C1)C2 [Adapalene, 6-[3-(1-adamantyl)-4-methoxyphenyl]-2-naphtoic acid] |  | more favorable tolerability profile
